Laboratory results: patent US20100216779A1 (GLAXOSMITHKLINE LLC, priority 2007, published 2010)

Experiments:
[1] = system: LISN cell (mouse 3T3 fibroblasts transduced with human IGF-1R) tumors; assay: In vivo efficacy, mice bearing LISN cell tumors; conditions: for tumor growth inhibition at day 21: LISN (start approx. 362 mm^3)
Description: E. In Vivo Efficacy—Mouse Models
The efficacy of the compounds of Examples 57 and 58 were assessed together in an in vivo efficacy experiment performed on mice bearing LISN cell (mouse 3T3 fibroblasts transduced with human IGF-1R) tumors. Fifty six female nude mice bearing subcutaneous LISN cell tumors were measured for tumor size and body weight and block randomized into seven groups of eight mice with an equal average tumor volume of approximately 200 mm3. Mice were dosed with either vehicle (20% SBE pH3.5), Example 57 or Example 58. The dosing schedules for each compound were based on previous experiments with the compounds and doses chosen to give the highest tumor growth inhibition and a dose response. Example 58 was dosed at 30, 100 and 300 mg/kg QD for 21 days while Example 57 was dosed at 30 mg/kg QD for 21 days, 15 mg/kg BID for 21 days and 30 mg/kg QDx3 days/week for 3 weeks.
The tumors on mice being treated with vehicle grew with the expected exponential growth throughout the 21 day study. […] The lower dose of 30 mg/kg of Example 58 achieved 28% tumor growth inhibition.
The efficacy of the compounds of Examples 237 and 219 were assessed together in an in vivo efficacy experiment performed on mice bearing LISN cell (mouse 3T3 fibroblasts transduced with human IGF-1R) tumors. Sixty four female nude mice bearing subcutaneous LISN cell tumors were measured for tumor size and body weight and block randomized into eight groups of eight mice with an equal average tumor volume of approximately 362 mm^3. Mice were dosed with either vehicle (20% SBE pH3.5), Example 237 or Example 219. The dosing schedules for each compound were based on previous experiments with the compounds and doses chosen to give the highest tumor growth inhibition and a dose response. Example 237 was administered at 30 and 60 mg/kg QD for 21 days and 30 mg/kg BID for 21 days while Example 219 was administered at 50 and 100 mg/kg QD for 21 days, 25 and 50 mg/kg BID for 21 days.
The tumors on mice being treated with vehicle grew with the expected exponential growth throughout the 21 day study. […] The lower dose of 30 mg/kg QD of Example 237 achieved 15% tumor growth inhibition at day 21 (note: 2 animals were euthanized prior to the last measurement). […] This recovered to 3% by the end of dosing and fully recovered after dosing was concluded. […] This recovered fully within 4 days after the completion of dosing.

[2] = target: T1, IR (NIH-3T3 cells over expressing human IGF-1R or IR) (Homo sapiens, UniProt P06213); assay: IR cellular autophosphorylation (DELFIA); format: cell-based; conditions: NIH-3T3 cells over expressing IR, insulin stimulated
T1 construct: expressed in transfected cells; host or cells: NIH-3T3 (mouse fibroblasts)
Summary of the method: (§1)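 Receptor-overexpressing NIH-3T3, 10% FBS, 37 °C; cpd 30 uM–1.5 nM × 2 h; stim IGF-1 30 ng/mL (IGF-1R) or insulin 3 ug/mL (IR), 15 min; lysate DELFIA, Eu anti-pTyr; % of stimulated signal.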

[3] = target: T2, human IGF-1R (NIH-3T3 cells over expressing human IGF-1R) (Homo sapiens, UniProt P08069); assay: IGF-1R cellular autophosphorylation (DELFIA); format: cell-based; conditions: IGF-1 stimulated
T2 construct: expressed in transfected cells; host or cells: NIH-3T3 (mouse fibroblasts)
Summary of the method: as §1

COLO205 (colon) = assay: Inhibition of cell proliferation, CellTiter-Glo, COLO205; format: cell-based; conditions: Homo sapiens, COLO 205, 72 h
Summary of the method: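 Exponentially growing COLO205 cells in medium with 10% FBS were plated below 2000 cells/well at 37 °C, 5% CO2. Untreated wells served as controls.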

[4] = system: NCI-H929 (multiple myeloma); assay: Inhibition of cell proliferation, CellTiter-Glo, NCI-H929; format: cell-based; conditions: Homo sapiens, 72 h
Summary of the method: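 Cells were grown in medium with 10% FBS at 37° C, 5% CO2. Cell number was read as CellTiter-Glo luminescence (cellular ATP), with untreated wells as control.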

T1 sequence (P06213 28-1382): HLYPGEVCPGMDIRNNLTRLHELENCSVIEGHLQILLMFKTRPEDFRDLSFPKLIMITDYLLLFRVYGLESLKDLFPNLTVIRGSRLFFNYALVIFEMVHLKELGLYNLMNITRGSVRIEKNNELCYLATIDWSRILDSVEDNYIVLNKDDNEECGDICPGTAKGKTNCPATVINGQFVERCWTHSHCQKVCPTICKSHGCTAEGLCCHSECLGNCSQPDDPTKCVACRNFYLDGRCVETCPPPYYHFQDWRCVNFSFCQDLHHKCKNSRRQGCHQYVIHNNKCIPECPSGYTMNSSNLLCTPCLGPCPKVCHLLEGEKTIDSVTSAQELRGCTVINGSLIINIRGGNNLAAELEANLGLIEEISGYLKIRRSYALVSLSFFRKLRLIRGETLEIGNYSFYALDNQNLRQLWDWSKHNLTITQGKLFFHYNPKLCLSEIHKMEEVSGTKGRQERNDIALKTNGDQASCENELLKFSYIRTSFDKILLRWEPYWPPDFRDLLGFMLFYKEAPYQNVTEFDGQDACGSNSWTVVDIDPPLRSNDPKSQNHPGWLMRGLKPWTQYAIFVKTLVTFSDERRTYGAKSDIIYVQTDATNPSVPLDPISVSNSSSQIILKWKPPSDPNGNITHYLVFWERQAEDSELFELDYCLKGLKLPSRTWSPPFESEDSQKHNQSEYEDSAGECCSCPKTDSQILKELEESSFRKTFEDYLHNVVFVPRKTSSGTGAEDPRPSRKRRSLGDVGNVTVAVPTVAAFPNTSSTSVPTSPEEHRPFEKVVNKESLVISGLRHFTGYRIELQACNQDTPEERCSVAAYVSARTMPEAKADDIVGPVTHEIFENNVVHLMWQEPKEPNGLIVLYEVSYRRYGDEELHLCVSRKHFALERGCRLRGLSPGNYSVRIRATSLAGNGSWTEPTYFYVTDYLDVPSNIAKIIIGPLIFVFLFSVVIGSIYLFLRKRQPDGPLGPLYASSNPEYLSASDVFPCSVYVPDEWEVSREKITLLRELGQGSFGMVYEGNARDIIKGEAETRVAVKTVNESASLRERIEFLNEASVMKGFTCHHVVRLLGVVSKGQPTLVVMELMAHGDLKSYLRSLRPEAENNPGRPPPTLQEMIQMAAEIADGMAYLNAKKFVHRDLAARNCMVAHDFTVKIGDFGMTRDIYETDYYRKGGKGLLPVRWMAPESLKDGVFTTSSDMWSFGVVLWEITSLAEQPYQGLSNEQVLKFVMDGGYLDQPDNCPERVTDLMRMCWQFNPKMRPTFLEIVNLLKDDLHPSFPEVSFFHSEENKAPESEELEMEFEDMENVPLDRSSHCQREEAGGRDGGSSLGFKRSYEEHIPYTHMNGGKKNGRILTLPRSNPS
T2 sequence (P08069 31-1367): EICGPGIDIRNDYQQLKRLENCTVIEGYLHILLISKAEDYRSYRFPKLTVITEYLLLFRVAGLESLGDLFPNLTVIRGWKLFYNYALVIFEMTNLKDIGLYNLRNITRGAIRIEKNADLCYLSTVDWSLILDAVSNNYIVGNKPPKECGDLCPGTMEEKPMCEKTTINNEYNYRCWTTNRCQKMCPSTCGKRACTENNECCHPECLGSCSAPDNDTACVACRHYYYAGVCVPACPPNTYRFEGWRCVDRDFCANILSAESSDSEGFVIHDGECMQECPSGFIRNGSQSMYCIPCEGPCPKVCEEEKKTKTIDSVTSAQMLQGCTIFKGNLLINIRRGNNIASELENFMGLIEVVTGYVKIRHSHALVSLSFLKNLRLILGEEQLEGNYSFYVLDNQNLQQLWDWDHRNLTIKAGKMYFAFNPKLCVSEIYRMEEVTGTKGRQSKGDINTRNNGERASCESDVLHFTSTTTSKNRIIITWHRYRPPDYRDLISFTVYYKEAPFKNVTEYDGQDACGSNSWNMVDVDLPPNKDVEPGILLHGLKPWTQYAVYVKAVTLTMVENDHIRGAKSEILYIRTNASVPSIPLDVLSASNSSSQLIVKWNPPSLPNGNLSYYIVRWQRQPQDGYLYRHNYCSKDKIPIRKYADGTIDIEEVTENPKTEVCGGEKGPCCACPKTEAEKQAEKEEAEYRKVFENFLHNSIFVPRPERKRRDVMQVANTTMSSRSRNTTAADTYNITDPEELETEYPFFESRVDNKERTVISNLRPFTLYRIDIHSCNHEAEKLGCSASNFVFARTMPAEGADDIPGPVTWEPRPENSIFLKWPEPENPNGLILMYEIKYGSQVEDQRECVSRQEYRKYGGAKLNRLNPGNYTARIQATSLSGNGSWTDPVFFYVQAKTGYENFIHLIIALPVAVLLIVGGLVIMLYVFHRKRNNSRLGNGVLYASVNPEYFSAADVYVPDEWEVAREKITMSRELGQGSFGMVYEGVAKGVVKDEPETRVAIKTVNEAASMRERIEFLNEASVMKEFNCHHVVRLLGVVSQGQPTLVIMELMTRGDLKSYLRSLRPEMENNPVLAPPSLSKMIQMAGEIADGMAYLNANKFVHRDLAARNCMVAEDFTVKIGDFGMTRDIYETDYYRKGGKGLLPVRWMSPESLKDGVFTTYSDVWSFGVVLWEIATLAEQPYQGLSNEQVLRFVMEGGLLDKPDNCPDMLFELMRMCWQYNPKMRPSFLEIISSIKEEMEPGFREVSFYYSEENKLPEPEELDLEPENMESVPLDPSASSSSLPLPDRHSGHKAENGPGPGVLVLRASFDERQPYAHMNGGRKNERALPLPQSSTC

| Compound | IC50 [2] [nM] | IC50 [3] [nM] | IC50 (COLO205 (colon)) [nM] | IC50 [4] [nM] | further results |
| --- | --- | --- | --- | --- | --- |
| CCc1cc(Nc2nccc(-c3c(-c4ccc(OC)c(C(=O)Nc5c(F)cccc5F)c4)nc4ccccn34)n2)c(OC)cc1N1CCC(N2CCN(S(C)(=O)=O)CC2)CC1 [Example 237, N-(2,6-difluorophenyl)-5-(3-{2-[(5-ethyl-2-(methyloxy)-4-{4-[4-(methylsulfonyl)-1-piperazinyl]-1-piperidinyl}phenyl)amino]-4-pyrimidinyl}imidazo[1,2-a]pyridin-2-yl)-2-(methyloxy)benzamide] | < 100 | < 100 | < 250 | < 250 | tumor growth inhibition at day 21 ([1]; 30 mg/kg BID for 21 days): 84%; tumor growth inhibition at day 21 ([1]; 30 mg/kg QD for 21 days, 2 animals euthanized prior to the last measurement): 15%; tumor growth inhibition at day 21 ([1]; 60 mg/kg QD for 21 days): 41%; body weight loss by the end of dosing ([1]; LISN, 30 mg/kg BID): 3%; initial body weight loss ([1]; LISN, 30 mg/kg BID): 6%; effect on body weight loss ([1]; LISN, other groups (30 and 60 mg/kg QD)): no effect |
| COc1cc(N2CCC(N3CCN(S(C)(=O)=O)CC3)CC2)ccc1Nc1nccc(-c2c(-c3cccc(C(=O)Nc4c(F)cccc4F)c3)nc3ccccn23)n1 [Example 58, N-(2,6-difluorophenyl)-3-(3-{2-[(2-(methyloxy)-4-{4-[4-(methylsulfonyl)-1-piperazinyl]-1-piperidinyl}phenyl)amino]-4-pyrimidinyl}imidazo[1,2-a]pyridin-2-yl)benzamide] | < 100 | < 100 | 250 to 1000 | < 250 | tumor growth inhibition ([1]; LISN, 30 mg/kg QD for 21 days): 28%; tumor growth inhibition ([1]; LISN, 100 mg/kg QD for 21 days): 46%; tumor growth inhibition ([1]; LISN, 300 mg/kg QD for 21 days): 45%; effect on body weight loss ([1]; LISN, 30, 100 and 300 mg/kg QD, throughout the study): no effect |
| CCOc1cc(N2CCC(CCS(C)(=O)=O)CC2)c(C)cc1Nc1nccc(-c2c(-c3ccc(OC)c(C(=O)Nc4c(F)cccc4F)c3)nc3ccccn23)n1 [Example 219, N-(2,6-difluorophenyl)-5-(3-{2-[(2-(ethyloxy)-5-methyl-4-{4-[2-(methylsulfonyl)ethyl]-1-piperidinyl}phenyl)amino]-4-pyrimidinyl}imidazo[1,2-a]pyridin-2-yl)-2-(methyloxy)benzamide] | < 100 | < 100 | < 250 | < 250 | tumor growth inhibition at day 21 ([1]; 25 mg/kg BID for 21 days): 16%; tumor growth inhibition at day 21 ([1]; 50 mg/kg BID for 21 days): 76%; tumor growth inhibition at day 21 ([1]; 50 mg/kg QD for 21 days): 29%; tumor growth inhibition at day 21 ([1]; 100 mg/kg QD for 21 days): 44%; time to full recovery of body weight after the completion of dosing ([1]; LISN, 25 mg/kg BID and 50 mg/kg BID): ≤ 4 days; body weight loss ([1]; LISN, 25 mg/kg BID for 21 days): 4%; body weight loss ([1]; LISN, 50 mg/kg BID for 21 days): 6%; body weight loss ([1]; LISN, 100 mg/kg and 50 mg/kg QD): no body weight loss |
| CCOc1ccc(-c2nc3ccccn3c2-c2ccnc(Nc3cc(C)c(N4CCN(CCOC)CC4)cc3OC)n2)cc1C(=O)Nc1c(F)cccc1F [Example 241, N-(2,6-difluorophenyl)-2-(ethyloxy)-5-(3-{2-[(5-methyl-2-(methyloxy)-4-{4-[2-(methyloxy)ethyl]-1-piperazinyl}phenyl)amino]-4-pyrimidinyl}imidazo[1,2-a]pyridin-2-yl)benzamide] | < 100 | < 100 | 250 to 1000 | < 250 | – |

Further lines, with some results ahead:

| IC50 [2] [nM] | IC50 [3] [nM] | IC50 (COLO205 (colon)) [nM] | IC50 [4] [nM] | Compound | further results |
| --- | --- | --- | --- | --- | --- |
| < 100 | < 100 | < 250 | < 250 | COc1cc(N2CCC(N3CCN(S(C)(=O)=O)CC3)CC2)c(C)cc1Nc1nccc(-c2c(-c3ccc(OC)c(C(=O)Nc4c(F)cccc4F)c3)nc3ccccn23)n1 [Example 236, N-(2,6-difluorophenyl)-5-(3-{2-[(5-methyl-2-(methyloxy)-4-{4-[4-(methylsulfonyl)-1-piperazinyl]-1-piperidinyl}phenyl)amino]-4-pyrimidinyl}imidazo[1,2-a]pyridin-2-yl)-2-(methyloxy)benzamide] | – |
| < 100 | < 100 | < 250 | < 250 | COc1cc(N2CCC(CCS(C)(=O)=O)CC2)c(C)cc1Nc1nccc(-c2c(-c3ccc(OC)c(C(=O)Nc4c(F)cccc4F)c3)nc3ccccn23)n1 [Example 230, N-(2,6-difluorophenyl)-5-(3-{2-[(5-methyl-2-(methyloxy)-4-{4-[2-(methylsulfonyl)ethyl]-1-piperidinyl}phenyl)amino]-4-pyrimidinyl}imidazo[1,2-a]pyridin-2-yl)-2-(methyloxy)benzamide] | – |
